In US7955852B2, “Expansion of renewable stem cell populations” (Gamida Cell Ltd., priority 2002, dated 2011):

Experiments:
[1] = system: Lin− c-kit+ Sca-1+ murine hematopoietic precursors; conditions: cited from earlier work
CD34+ cells [2] = test: Ex-vivo expansion of CD34+ cell enriched cord blood cultures with cytokines; cell counts and FACS surface antigen analysis; format: cell-based, human; conditions: for CD34+ (×10^4): 10^−5M; for CD34+ cells per ml: three weeks, SCF, FLt3, IL-6, IL-3, re-selected
Method: Human blood cells were obtained from umbilical cord blood from female patients following full-term, normal delivery (informed consent was obtained).
Samples were collected and processed within 12 hours postpartum. Blood was mixed with 3% Gelatin (Sigma, St. Louis, Mo.), sedimented for 30 minutes to remove most red blood cells. […] The mononuclear cell fraction in the interface layer was collected, washed three times and resuspended in phosphate-buffered saline (PBS) solution (Biological Industries) containing 0.5% bovine serum albumin (BSA, Fraction V; Sigma).
To purify CD34^+ mononuclear cells, the fraction was subjected to two cycles of immuno-magnetic separation using the MiniMACS® or Clinimax® CD34 Progenitor Cell Isolation Kit (Miltenyi Biotec, Auburn, Calif.) as per manufacturer's recommendations.
CD34^+ expressing purified cells above were cultured in 24-well Costar Cell Culture Clusters (Corning Inc., Corning, N.Y.) or culture bags (American Fluoroseal Corp), at a concentration of 10^4 cells/ml in alpha medium (Biological Industries, Beit Haemek, Israel) supplemented with 10% fetal bovine serum (FBS, Biological Industries). The following human recombinant cytokines were added: Thrombopoietin (TPO), interleukin-6 (IL-6), FLT-3 ligand and stem cell factor (SCF), all at final concentrations of 50 ng/ml each, though occasionally IL-3, at a concentration of 20 ng/ml, was added either together or instead of SCF. For non-hematopoietic cell differentiation, FGF, EGF, NGF, VEGF, LIF or Hepatocyte growth factor (HGF) were used to supplement the growth medium, either alone or in various combinations. All cytokines used were purchased from Perpo Tech, Inc. (Rocky Hill, N.J.). The cultures were incubated at 37° C., 5% CO2, in a humidified atmosphere.
At weekly intervals, cell cultures were toped and semi-depopulated and were supplemented with fresh medium, serum and cytokines or supplemented with fresh growth medium, alone. At predetermined time points, cells were harvested, stained with trypan blue, counted, and cell morphology was determined via the use of cytospin (Shandon, UK)-prepared smears stained with May-Grunwald/Giemsa solutions.
CD34^+ purified and whole MNC cultures were prepared and maintained as described above. […] The antagonist was added for a predetermined, limited period, for up to three weeks or continuously during the entire culture period.
Cells were harvested, washed with a PBS solution containing 1% bovine sera albumin (BSA) and 0.1% sodium azide (Sigma), and stained at 4° C. for 60 minutes with fluorescein isothiocyanate or phycoerythrin-conjugated antibodies (all from Immunoquality Products, the Netherlands). The cells were then washed with the same buffer and analyzed by FACS caliber or Facstarplus flow cytometers. Cells were passed at a rate of 1000 cells/second, using saline as the sheath fluid. A 488 nm argon laser beam served as the light source for excitation. Emission of ten thousand cells was measured using logarithmic amplification, and analyzed using CellQuest software. Negative control staining of cells was accomplished with mouse IgG-PE (Dako A/S Glostrup, Denmark) and mouse IgG-FITC (BD Biosciences, Erembodegem, Belgium).
CD34 surface expression on short and long-term cultures initiated either with purified CD34^+ cells or the entire MNC fraction was determined as follows: CD34^+ cells were positively reselected (Miltenyi kit) and counted. Purity was confirmed by subsequent FACS and cell morphology analysis.
Reselected CD34^+ cell subsets were stained for the following combination of antigens: CD34PE/CD38FITC and CD34PE/38, 33, 14, 15, 3, 4, 61, 19 (Lin) FITC. The fraction positive for CD34 and negative for CD38 was defined as CD34^+CD38^−. The fraction positive for CD34 and negative for LIN was defined as CD34^+Lin^− cell fraction.
FACS analysis results are given as percentage values of cells. Absolute numbers of subsets are calculated from the absolute number of CD34^+ cells.

CD34+ cells [3] = test: Colony forming unit (CFU / LTC-CFUc) ability of ex-vivo CD34+ cell cultures; format: cell-based, human; conditions: 10^−5M
Method: Total cell counts, numbers of CD34^+ cells and subsets, and CFU numbers are presented as cumulative numbers, with the assumption that the cultures had not been passaged; i.e., the number of cells per ml were multiplied by the number of passages performed.
Cells were cloned in semi-solid, methylcellulose-containing medium supplemented with 2 IU/ml erythropoietin (Eprex, Cilag AG Int., Switzerland), stem cell factor and IL-3, both at 20 ng/ml, and G-CSF and GM-CSF, both at 10 ng/ml (all from Perpo Tech). Cultures were incubated for 14 days at 37° C., 5% CO2 in a humidified atmosphere.
Briefly, the ability of the cultures to maintain self-renewal was measured by determination of the content of colony forming unit cells in the long and extended long-term cultures (LTC-CFUc), as described in the references hereinabove.

HL-60 cells = conditions: cited from earlier work
[4] = TPO, FLT3, IL-6, IL-3, 3 weeks after seeding

## Cc1ccc(C2=CCC(C)(C)c3ccc(C#Cc4ccc(C(=O)O)cc4)cc32)cc1 [AGN 193109]
[1]; cultured for 7 days
  increase in the pre-CFU-S population: approximately 6 fold
  short- or long-term repopulating ability: virtually no short- or long-term repopulating ability

## CC1=C(/C=C/C(C)=C/C=C/C(C)=C/C(=O)O)C(C)(C)CCC1 [ATRA, all-trans-retinoic-acid]
[1]; 1 μmol
  generation of colony-forming cell (CFC) and colony-forming unit-spleen (CFU-S): enhanced

## CN1c2ccc([N+](=O)[O-])cc2N=C(c2ccc(C(=O)O)cc2)c2cc3c(cc21)C(C)(C)CCC3(C)C [HX-531, 4-[5H-2,3-(2,5-Dimethyl-2,5-Hexano) 5-Methyl-8-nitrodibenzo [b,e][1,4]diazepin-11-yl) Benzoic acid]
CD34+ cells [2]; 5 weeks after seeding
  CD34+ (×10^4): 1636 ×10^4
CD34+ cells [2]; 9 weeks after seeding
  CD34+ (×10^4): 4977 ×10^4
CD34+ cells [2]; 11 weeks after seeding
  CD34+ (×10^4): 4055 ×10^4
CD34+ cells [2]; [4]
  CD34+ (×10^4): 167 ×10^4
CD34+ cells [3]; 3 weeks after seeding, mixed colonies
  CFU (×10^3), mixed: (120 mixed) ×10^3
CD34+ cells [3]; 5 weeks after seeding
  CFU (×10^3): 8542 ×10^3
CD34+ cells [3]; 9 weeks after seeding
  CFU (×10^3): 36557 ×10^3
CD34+ cells [3]; 11 weeks after seeding
  CFU (×10^3): 67338 ×10^3
CD34+ cells [3]; [4]
  CFU (×10^3): 1920 ×10^3

## CCCOc1cc2c(cc1\C(C)=C/C=C/C(C)=C/C(=O)O)C(C)(C)CCC2(C)C [LGN 100754]
CD34+ cells [2]; 10^−7 M, along with IL-3, 3 and 5 weeks
  activity on ex vivo expansion of stem/progenitor cells: no activity

## NC(=O)c1cccnc1 [Nicotinamide]
CD34+ cells [2]; 1 mM, TPO
  CD34+ cells per ml: 99 ×10^4 CD34+ cells per ml
CD34+ cells [2]; 5 mM, TPO
  CD34+ cells per ml: 180 ×10^4 CD34+ cells per ml
HL-60 cells
  CD38 activity and differentiation: inhibited
